# Where two headings read alike, the source gives them in different places.
# Tests used:
# [1] = molecular target: T1, human recombinant enzyme (full length top1) (Homo sapiens, UniProt P11387); assay: Topoisomerase-I-dependent DNA rupture assay, persistence of DNA damage; assay type: biochemical; details: 30 min incubation with 10 μM drug
# T1 construct: the human recombinant enzyme (full length top1)
# T1 sequence (P11387 1-765): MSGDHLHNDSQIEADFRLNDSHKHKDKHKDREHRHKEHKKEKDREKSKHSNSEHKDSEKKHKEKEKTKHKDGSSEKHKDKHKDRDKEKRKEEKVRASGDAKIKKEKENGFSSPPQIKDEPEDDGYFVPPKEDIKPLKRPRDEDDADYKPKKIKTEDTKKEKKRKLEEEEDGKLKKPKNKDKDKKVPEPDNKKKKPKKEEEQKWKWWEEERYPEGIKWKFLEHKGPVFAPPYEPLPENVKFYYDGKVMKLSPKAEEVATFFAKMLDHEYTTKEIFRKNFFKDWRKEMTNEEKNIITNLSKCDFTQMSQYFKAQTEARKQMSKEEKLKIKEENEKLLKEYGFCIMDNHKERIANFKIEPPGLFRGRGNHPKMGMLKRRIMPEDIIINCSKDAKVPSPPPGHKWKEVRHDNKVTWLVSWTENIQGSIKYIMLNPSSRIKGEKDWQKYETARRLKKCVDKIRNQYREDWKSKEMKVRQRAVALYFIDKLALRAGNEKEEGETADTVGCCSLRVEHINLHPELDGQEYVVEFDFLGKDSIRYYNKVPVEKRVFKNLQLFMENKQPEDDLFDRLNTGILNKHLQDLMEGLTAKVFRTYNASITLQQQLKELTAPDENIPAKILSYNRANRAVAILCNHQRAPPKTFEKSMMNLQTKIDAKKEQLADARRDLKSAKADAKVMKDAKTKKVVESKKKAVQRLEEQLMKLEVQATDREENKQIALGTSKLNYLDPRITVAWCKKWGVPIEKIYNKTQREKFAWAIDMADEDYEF
# [2] = system: NCI-H460 cell line (NSCL cancer); assay: Cell growth inhibition assay (cytotoxicity, cell count); assay type: cell-based, human; details: for NCl-H460 IC50 (μg/mL) Cell count: H460 cells; for IC50: Homo sapiens
# Description: The compounds of the invention were tested in a cytotoxicity assay on a wide spectrum of tumour cells. By way of example, the cytotoxicity data on the NCI-H460 cell line (NSCL cancer) concerning two compounds of formula (I) are reported, using camptothecin and the drugs Topotecan and SN-38 as references:
# H460 Cells from human large cell lung tumor were cultured in RPMI-1640 medium containing 10% foetal calf serum. Cell sensitivity was determined by cell growth inhibition assay after 1 or 72 hr drug exposure. The cells in logarithmic growth were collected and seeded in duplicate in 6-wells plates. […] IC50 is defined as the concentration inhibiting by 50% cell growth compared with untreated controls growth.
# [3] = Time 0 min after adding 0.6 M NaCl
# [4] = 1 or 72 hr drug exposure, counted with Coulter counter 72 hours after exposure
# [5] = NCI-H460, read-out: NCl-H460 IC50 (μg/mL) Cell count, H460 cells, 1 or 72 hr drug exposure, counted with Coulter counter 72 hours after exposure
# [6] = NCI-H460, H460 cells, 1 or 72 hr drug exposure, counted with Coulter counter 72 hours after exposure, read-out: NCl-H460 IC50 (μg/mL) Cell count
compound,measurement,setting,value
"CC[C@@]1(O)C(=O)OCc2c1cc1n(c2=O)C(N=[N+]=[N-])c2cc3ccccc3nc2-1 (single isomer, unassigned) [5-N3 CPT, 5-N3-camptothecin]",Persistence of DNA Damage (%),[1]; [3],100%
same,Persistence of DNA Damage (%),[1]; Time 1 min after adding 0.6 M NaCl,50%
same,Persistence of DNA Damage (%),[1]; Time 5 min after adding 0.6 M NaCl,30%
same,Persistence of DNA Damage (%),[1]; Time 10 min after adding 0.6 M NaCl,15%
"CC[C@@]1(O)C(=O)OCc2c1cc1n(c2=O)C(N(NC(=O)OC(C)(C)C)C(=O)OC(C)(C)C)c2cc3ccccc3nc2-1 (single isomer, unassigned) [5-di-tert-butoxycarbonyl-hydrazinocamptothecin Isomer 2, 5-di-t-butoxycarbonylhydrazino-camptothecin 2nd diastereomer]",NCl-H460 IC50 (μg/mL) Cell count,[2]; [4],> 100 µg/mL
"CC[C@@]1(O)C(=O)OCc2c1cc1n(c2=O)C(N=[N+]=[N-])c2cc3ccccc3nc2-1 (single isomer, unassigned) [5-N3-camptothecin Isomer 1, 5-N3-camptothecin 1st diastereomer]",IC50,[2]; [5],4.18 µg/mL
"CC[C@@]1(O)C(=O)OCc2c1cc1n(c2=O)C(F)c2cc3ccccc3nc2-1 (single isomer, unassigned) [5-F-camptothecin Isomer 2, 5-F-camptothecin 2nd diastereomer]",Persistence of DNA Damage (%),[1]; [3],100%
same,Persistence of DNA Damage (%),"[1]; Time 1 min after adding 0.6 M NaCl, listed as 5-F CPT isomers 2",10%
same,Persistence of DNA Damage (%),"[1]; Time 5 min after adding 0.6 M NaCl, listed as 5-F CPT isomers 2",10%
same,Persistence of DNA Damage (%),"[1]; Time 10 min after adding 0.6 M NaCl, listed as 5-F CPT isomers 2",13%
same,NCl-H460 IC50 (μg/mL) Cell count,[2]; [4],20 ± 5.1 µg/mL
CC[C@@]1(O)C(=O)OCc2c1cc1n(c2=O)C(N)c2cc3ccccc3nc2-1 (stereo partly shown) [5-NH2-camptothecin],IC50,[2]; [6],11 ± 3.1 µg/mL
"CC[C@@]1(O)C(=O)OCc2c1cc1n(c2=O)C(N=[N+]=[N-])c2cc3ccccc3nc2-1 (single isomer, unassigned) [5-N3-camptothecin Isomer 2, 5-N3-camptothecin 2nd diastereomer]",NCl-H460 IC50 (μg/mL) Cell count,[2]; [4],2.59 ± 0.7 µg/mL
"CC[C@@]1(O)C(=O)OCc2c1cc1n(c2=O)C(N(NC(=O)OC(C)(C)C)C(=O)OC(C)(C)C)c2cc3ccccc3nc2-1 (single isomer, unassigned) [5-di-tert-butoxycarbonyl-hydrazinocamptothecin Isomer 1, 5-di-t-butoxycarbonylhydrazino-camptothecin 1st diastereomer]",IC50,[2]; [6],50 µg/mL
"CC[C@@]1(O)C(=O)OCc2c1cc1n(c2=O)C(F)c2cc3ccccc3nc2-1 (single isomer, unassigned) [5-F-camptothecin Isomer 1, 5-F-camptothecin 1st diastereomer]",Persistence of DNA Damage (%),[1]; [3],100%
same,Persistence of DNA Damage (%),"[1]; Time 1 min after adding 0.6 M NaCl, listed as 5-F CPT isomers 1",18%
same,Persistence of DNA Damage (%),"[1]; Time 5 min after adding 0.6 M NaCl, listed as 5-F CPT isomers 1",18%
same,Persistence of DNA Damage (%),"[1]; Time 10 min after adding 0.6 M NaCl, listed as 5-F CPT isomers 1",10%
same,IC50,[2]; [5],20.6 µg/mL

# Reference: US8193210B2, “Camptothecin derivatives with antitumor activity” (Indena S.p.A., priority 2006, dated 2012)
